The species named for experiment [1] is Homo sapiens. The experiment can be described thus: Binding affinity to 14C3 DNA triplex assessed as melting temperature for transition from triplex to duplex DNA forms by UV absorption spectrometry.
The species named for experiment [2] is Homo sapiens. The experiment can be described thus: Binding affinity to 14C3 DNA triplex assessed as melting temperature for transition from duplex to single strand DNA forms by UV absorption spectrometry.
The species entered for experiment [3] is Homo sapiens. The experiment can be described thus: Binding affinity to 14C3 DNA triplex assessed as melting temperature change from duplex to single strand DNA forms by UV absorption spectrometry.
Experiment [4] is filed under the species Homo sapiens. The experiment can be described thus: Binding affinity to 14C3 DNA triplex assessed as melting temperature change from triplex to duplex DNA forms by UV absorption spectrometry.
Experiment [5] is filed under the species Homo sapiens. The experiment can be described thus: Binding affinity to 14C3 DNA triplex assessed as stabilization of triplex DNA form.

For orientation: Tm means the temperature at the midpoint of the melting transition. One may read the ΔTm as the change in melting temperature against a reference sample.

Activity calls are given as the source filed them. The rule behind the calls is not given here.

For `NCCCNc1ccc2c(c1)-n1c(nc3ccccc3c1=O)C2=O`, the Tm in the experiment filed under Homo sapiens [1] was 33.5 °C; in the experiment listed under Homo sapiens [2], 64.7 °C. Besides, the ΔTm in the experiment filed under Homo sapiens [3] came out at 5.7 °C; in the experiment listed under Homo sapiens [4] it was 13 °C.

Consider `CN(CCCN)c1cc2c(cc1F)C(=O)c1nc3ccccc3c(=O)n1-2`, for which the melting temperature (Tm) in the experiment filed under Homo sapiens [1] amounted to 45.3 °C; in the experiment listed under Homo sapiens [2], 61.8 °C. The results for the shift in melting temperature (ΔTm) in the experiment filed under Homo sapiens [3] and in the experiment listed under Homo sapiens [4] were 2.8 °C and 24.8 °C, respectively.

As to `COc1ccc2c(ccc3[nH]c4c(C)cnc(NCCCN)c4c32)c1`, in the experiment filed under Homo sapiens [5], the result was Active.

For `COc1ccc2c(ccc3c2[nH]c2c(C)cnc(NCCCN(C)CCCN)c23)c1`, the outcome in the experiment filed under Homo sapiens [5] was Active.

As for `CN(CCCN)c1ccc2c(c1)-n1c(nc3ccccc3c1=O)C2=O`, the Tm in the experiment listed under Homo sapiens [1] is 39.3 °C; in the experiment filed under Homo sapiens [2] it was 62.3 °C. Moreover, the ΔTm in the experiment listed under Homo sapiens [3] is 3.3 °C; in the experiment filed under Homo sapiens [4], 18.8 °C.

On to `NCCCNc1cc2c(cc1F)C(=O)c1nc3ccccc3c(=O)n1-2`, for which the midpoint of thermal melting (Tm) is 39.8 °C in the experiment listed under Homo sapiens [1] and 63.8 °C in the experiment listed under Homo sapiens [2]. Moreover, the results for the ΔTm in the experiment listed under Homo sapiens [3] and in the experiment listed under Homo sapiens [4] were 4.8 °C and 19.3 °C, respectively.

For the origin of these results see ChEMBL document CHEMBL1139106, “Specific stabilization of DNA triple helices by indolo[2,1-b]quinazolin-6,12-dione derivatives” (Bioorg Med Chem Lett, 2007).
